Assays:
[1] = system: phosphorylated p53 [pS15]; test: Phosphorylated p53 ELISA in HCT-116 cells; format: cell-based; conditions: 24 hr, 1-5 uM
Experimental: The protocol for this assay is described as follows. On Day 1, cells were seeded at 2×10^6 cells/10 cm dish/10 mL medium. On day two, cells were treated as follows: control=0.05% DMSO (5 μl DMSO stock/10 ml medium); 1 μM CX3543 (1 μl Stock (10 mM)/10 ml medium); 2 μM CX3543 (2 μl Stock (10 mM)/10 ml medium); 3 μM CX3543 (3 μl Stock (10 mM)/10 ml medium); 4 μM CX3543 (4 μl Stock (10 mM)/10 ml medium) and 5 μM CX3543 (5 μl Stock (10 mM)/10 ml medium).
On Day 3, cells were harvested and attached and floating cells were collected. Cells were washed twice with PBS, counted and collected at 4×10^6 cells/sample. The cell pellet was frozen at −80° C. until further use. […]
Test Procedure. […] After washing, the plate is inverted and tapped dry on absorbance tissue. […]
Wash wells with 400 μl working wash buffer four times. […] After washing, the plate is inverted and tapped try on absorbance tissue. […] After washing, the plate is inverted and tapped try on absorbance tissue. […] Read the plate at A450 nm by setting chromogen blank (=100 μl TMB+100 μl Stop soln) as blank. Read absorbance within 2 hours of assay completion.

[2] = system: HCT-116 cells; test: Annexin V-Alexa 488 staining; format: cell-based; conditions: 2 uM and 4 uM, 24 hr
Experimental: The following protocol was followed for this example. […] Incubate o/n or up to 24 hrs at 37° C. in CO2 incubator. […] Keep one or two untreated plates (medium only) as control plates. […] Harvest cells (collect attached as well as floating cells). Wash cells twice with cold PBS. Re-suspend cells in 1× Annexin binding buffer.
Count cells and dilute in 1× Annexin binding buffer to ˜1×10^6 cells/0.1 ml, preparing a sufficient volume to have 100 μl per assay. Add 5 μl of the Annexin V conjugate to each 100 μl of cell suspension. Add 4 μl of propidium iodide solution (stock=1 mg/ml) to each 100 μl of cell suspension. Incubate sample at RT for 15 minutes. Add 400 μl Annexin binding buffer, mix gently and keep samples on ice. Analyze stained cells immediately by flow cytometry.

[3] = target: topoisomerase I (Homo sapiens, UniProt P11387); test: Topoisomerase I inhibition; format: biochemical
Sequence of topoisomerase I (P11387 whole entry): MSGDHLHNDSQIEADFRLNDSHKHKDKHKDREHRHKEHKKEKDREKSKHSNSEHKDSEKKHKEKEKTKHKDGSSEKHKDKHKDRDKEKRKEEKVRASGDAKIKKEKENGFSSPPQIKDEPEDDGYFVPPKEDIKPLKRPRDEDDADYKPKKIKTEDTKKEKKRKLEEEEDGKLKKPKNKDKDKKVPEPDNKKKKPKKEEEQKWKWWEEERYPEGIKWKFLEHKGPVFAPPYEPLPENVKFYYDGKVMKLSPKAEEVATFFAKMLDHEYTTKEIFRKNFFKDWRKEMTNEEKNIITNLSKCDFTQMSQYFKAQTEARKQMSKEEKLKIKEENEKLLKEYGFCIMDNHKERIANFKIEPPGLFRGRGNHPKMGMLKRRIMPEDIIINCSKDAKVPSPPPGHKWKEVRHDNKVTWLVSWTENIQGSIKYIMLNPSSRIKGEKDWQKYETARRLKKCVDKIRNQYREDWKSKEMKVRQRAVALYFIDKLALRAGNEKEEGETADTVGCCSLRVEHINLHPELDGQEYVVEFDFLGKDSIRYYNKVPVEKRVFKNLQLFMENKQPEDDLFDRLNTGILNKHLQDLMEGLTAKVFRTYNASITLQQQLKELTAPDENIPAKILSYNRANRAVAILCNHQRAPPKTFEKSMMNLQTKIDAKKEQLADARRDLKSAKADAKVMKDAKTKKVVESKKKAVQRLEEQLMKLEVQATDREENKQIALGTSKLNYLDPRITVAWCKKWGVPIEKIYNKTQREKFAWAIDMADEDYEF

[4] = system: topoisomerase II; test: Topoisomerase-II poison assay; format: biochemical
Description: FIG. 7 illustrates data from a toposiomerase-II poison assay, using VP-16 (Etoposide) as a control Topoisomerase-II poison.

[5] = system: native quadruplex structures that regulate different oncogenes; test: Quadrome footprints; format: binding; conditions: FIG. 4
Description: Quadrome Footprints. Compounds may be evaluated for their ability to bind to other native quadruplex structures of biological relevance, including quadruplex control elements that regulate a range of different oncogenes.

CN1CCCC1CCNC(=O)c1cn2c3c(c(N4CCC(c5cnccn5)C4)c(F)cc3c1=O)Oc1cc3ccccc3cc1-2 (stereo not drawn) [CX-3543]
population of phosphorylated p53 [1]: enhanced | staining by a dye positive for Annexin V externalization [2]: significant increased staining | inhibitory activity against topoisomerase I [3]: not to be an inhibitor or poison | inhibitory activity against topoisomerase II [4]: not to be an inhibitor or poison | concentration up to which no topoisomerase dependent strand breaks were induced ([4]; supercoiled DNA, FIG. 7): > 100 µM | selectivity footprint by oncogene [5]: selectively binds to those quadruplexes that are capable of adopting the chair/propeller conformation

Reference: patent publication US7507727B2, “Substituted quinobenzoxazine analogs and methods of using thereof” (Cylene Pharmaceuticals, Inc., priority 2003, dated 2009)
